Results taken from ChEMBL document CHEMBL4732126, “Design, synthesis, and biodistribution studies of new analogues of marine alkaloids: Potent in vitro and in vivo fungicidal agents against Candida spp” (Eur J Med Chem, 2021).
Values after ≈ are worked out from the molar mass of the structure shown. Active and inactive are the calls of the source. The calls are words filed in the database; no cut-off is given here.

Key:
[1] = Toxicity in iv dosed mouse measured for 24 hrs; format: organism-based; settings: in vivo
[2] = Toxicity in po dosed mouse measured for 24 hrs; format: organism-based; settings: in vivo
[3] = system: Candida albicans; assay: In vivo antifungal activity in Swiss mouse infected with Candida albicans ATCC 10231 assessed as reduction in fungal load in spleen at 1 mg/kg, ip administered at 2, 24 and 48 hrs post-infection and measured per gm of organ at 24 hrs post-last dose (reference value: 2.34); format: functional; settings: time 72.0 hrs
[4] = Toxicity in Swiss mouse assessed as relative liver weight at 1 mg/kg, ip measured after 24 hrs (reference value: 49.42 +/- 7.17 g); format: organism-based; settings: in vivo
[5] = system: Candida albicans; assay: In vivo antifungal activity in Swiss mouse infected with Candida albicans ATCC 10231 assessed as reduction in fungal load in kidney at 10 mg/kg, ip administered at 2, 24 and 48 hrs post-infection and measured per gm of organ at 24 hrs post-last dose (reference value: 2.47); format: functional, organism-based; settings: time 72.0 hrs
[6] = system: Candida albicans; assay: In vivo antifungal activity in Swiss mouse infected with Candida albicans ATCC 10231 assessed as reduction in fungal load in spleen at 10 mg/kg, ip administered at 2, 24 and 48 hrs post-infection and measured per gm of organ at 24 hrs post-last dose (reference value: 2.34); format: functional, organism-based; settings: time 72.0 hrs
[7] = system: Candida albicans; assay: Antifungal activity against Candida albicans isolate 2 assessed as reduction in fungal growth incubated for 48 hrs by broth microdilution method; format: functional
[8] = system: Candida albicans; assay: In vivo antifungal activity in Swiss mouse infected with Candida albicans ATCC 10231 assessed as reduction in fungal load in kidney at 1 mg/kg, ip administered at 2, 24 and 48 hrs post-infection and measured per gm of organ at 24 hrs post-last dose (reference value: 2.47); format: functional; settings: time 72.0 hrs
[9] = system: Candida albicans; assay: Antifungal activity against Candida albicans isolate 5 assessed as reduction in fungal growth incubated for 48 hrs by broth microdilution method; format: functional
[10] = system: Candida albicans; assay: Fungicidal activity against Candida albicans ATCC 10231 assessed as reduction in fungal load at 1 ug/ml incubated for 8 hrs followed by inoculation on SD agar plate for 48 hrs by time-kill assay; format: functional, organism-based; settings: dose 1.0 µg/ml, time 56.0 hrs
[11] = system: Candida albicans; assay: Fungicidal activity against Candida albicans isolate 3 assessed as fungal killing incubated for 48 hrs followed by plating on SD agar plate; format: functional; settings: read-out: MFC99.9
[12] = system: Candida albicans; assay: Antifungal activity against Candida albicans isolate 1 assessed as reduction in fungal growth incubated for 48 hrs by broth microdilution method; format: functional
[13] = system: Candida albicans; assay: In vivo antifungal activity in Swiss mouse infected with Candida albicans ATCC 10231 assessed as reduction in fungal load in liver at 1 mg/kg, ip administered at 2, 24 and 48 hrs post-infection and measured per gm of organ at 24 hrs post-last dose (reference value: 1.80); format: functional; settings: time 72.0 hrs
[14] = Toxicity in Swiss mouse assessed as body weight at 1 mg/kg, ip measured after 24 hrs (reference value: 36.25 +/- 0.31 g); format: organism-based; settings: in vivo
[15] = system: Candida albicans; assay: Fungicidal activity against Candida albicans isolate 5 assessed as fungal killing incubated for 48 hrs followed by plating on SD agar plate; format: functional; settings: read-out: MFC99.9
[16] = system: Candida albicans; assay: Fungicidal activity against Candida albicans isolate 1 assessed as fungal killing incubated for 48 hrs followed by plating on SD agar plate; format: functional; settings: read-out: MFC99.9
[17] = Toxicity in Swiss mouse assessed as relative kidney weight at 1 mg/kg, ip measured after 24 hrs (reference value: 14.91 +/- 0.99 g); format: organism-based; settings: in vivo
[18] = system: Candida albicans; assay: Antifungal activity against Candida albicans isolate 4 assessed as reduction in fungal growth incubated for 48 hrs by broth microdilution method; format: functional
[19] = system: Candida albicans; assay: Fungicidal activity against Candida albicans isolate 2 assessed as fungal killing incubated for 48 hrs followed by plating on SD agar plate; format: functional; settings: read-out: MFC99.9
[20] = system: Candida albicans; assay: Fungicidal activity against Candida albicans isolate 4 assessed as fungal killing incubated for 48 hrs followed by plating on SD agar plate; format: functional; settings: read-out: MFC99.9
[21] = system: Candida albicans; assay: In vivo antifungal activity in Swiss mouse infected with Candida albicans ATCC 10231 assessed as reduction in fungal load in liver at 10 mg/kg, ip administered at 2, 24 and 48 hrs post-infection and measured per gm of organ at 24 hrs post-last dose (reference value: 1.80); format: functional; settings: time 72 hrs
[22] = Toxicity in Swiss mouse assessed as relative spleen weight at 1 mg/kg, ip measured after 24 hrs (reference value: 4.02 +/- 0.59 g); format: organism-based; settings: in vivo
[23] = system: Candida albicans; assay: Antifungal activity against Candida albicans isolate 3 assessed as reduction in fungal growth incubated for 48 hrs by broth microdilution method; format: functional
[24] = Toxicity in Swiss mouse assessed as relative heart weight at 1 mg/kg, ip measured after 24 hrs (reference value: 4.75 +/- 0.60 g); format: organism-based; settings: in vivo
[25] = Toxicity in Swiss mouse assessed as relative lung weight at 1 mg/kg, ip measured after 24 hrs (reference value: 6.35 +/- 0.68 g); format: organism-based; settings: in vivo

`COc1cc2c(cc1OC)[C@@H]1N(C)Cc3c(cc(OC)c4c3OCO4)[C@]1(C)[C@H](O)C2` gave an LD50 at 24 h [1] of 41.6 mg/kg and an LD50 at 24 h [2] of 800 mg/kg.

With `C[C@@H]1[C@H](O)[C@@H](C)/C=C/C=C/C=C/C=C/C=C/C=C/C=C/[C@H](O[C@@H]2O[C@H](C)[C@@H](O)[C@H](N)[C@@H]2O)C[C@@H]2O[C@](O)(C[C@@H](O)C[C@@H](O)[C@H](O)CC[C@@H](O)C[C@@H](O)CC(=O)O[C@H]1C)C[C@H](O)[C@H]2C(=O)O` [AMPHOTERICIN B] the Activity [3] was “Active”, the Activity [4] was 49.34 g and the Activity [5] was “Active”. For the same molecule, the Activity [6] was “Active”, the MIC [7] was 39 µg/mL (≈ 42.2 µM) and the Activity [8] was “Active”. For the same molecule, the MIC [9] was 39 µg/mL (≈ 42.2 µM), the Activity [10] was “Active” and the MFC [11] was 39 µg/mL (≈ 42.2 µM). The MIC [12] was 39 µg/mL (≈ 42.2 µM), the Activity [13] was “Active” and the Activity [14] was 31.12 g. The MFC [15] was 78.1 µg/mL (≈ 84.5 µM), the MFC [16] was 78.1 µg/mL (≈ 84.5 µM) and the Activity [17] was 15.56 g. The MIC [18] was 156 µg/mL (≈ 169 µM), the MFC [19] was 312 µg/mL (≈ 338 µM) and the MFC [20] was 625 µg/mL (≈ 676 µM). The Activity [21] was 1.51 log10CFU, the Activity [22] was 4.14 g and the MIC [23] was 39 µg/mL (≈ 42.2 µM). It also gave an Activity [24] of 5.94 g and an Activity [25] of 6.51 g.
